Laboratory results: patent US4551455A, “Method of treating high blood pressure using 6-[4-(1-imidazolyl)-phenyl]-5-methyl-3-oxo-tetrahydropyridazines” (A. Nattermann & Cie GmbH, priority 1982, dated 1985)
Where two headings read alike, the source gives them in different places. Values belong to the compound of their own block, whether it stands above or below them.

Key:
thrombin formation = assay: reduction of thrombin formation in narcotized rats; type: in vivo, rat
Method: (§1) For investigation of the pharmacodynamic properties, the following methods (1) through (4) were employed.
(4) The reduction of thrombin formation in narcotized rats was evaluated. The test of the reduction of thrombin formation by the substances of the present invention 6-[4-(1-imidazolyl)phenyl]-5-methyl-3-oxo-2,3,4,5-tetrahydropyridazine (A) and 6-[4-(2-methyl-1-imidazolyl)-phenyl]-5-methyl-3-oxo-2,3,4,5-[…] (B) in parallel with the reference substance acetylsalicylic acid (D) was carried out by oral administration to narcotized rats.

anaesthetized dogs = assay: blood pressure-lowering effect on anaesthetized dogs; type: in vivo, dog; details: for influence on blood pressure (in words): Table 2, anaesthetized dogs; for Pressure, Δ mmHg, diastolic / Pressure, Δ mmHg, systolic: anaesthetized dogs, 0.316 mg/kg intraduodenally, change in pressure
Method: as §1
(2) The blood pressure-lowering effect on anaesthetized dogs was evaluated. The influence on the systolic and diastolic blood preessure of the subject compounds 6-[4-(1-imidazolyl)phenyl]-5-methyl-3-oxo-2,3,4,5-tetrahydropyridazine (A) and 6-[4-(2-methyl-1-imidazolyl)-phenyl]-5-methyl-3-oxo-2,3,4,5-tetrahydropyridazine (B) were studied on the anaesthetized dogs by intraduodenal administration.

[1] = system: collagen-induced thrombocyte aggregation; assay: inhibition of collagen-induced thrombocyte aggregation in vitro (method of Born, modified); type: cell-based, human; details: read-out: IC50 (concentration that caused a 50% reduction of the aggregation)
Method: as §1
(3) The inhibition of collagen-induced thrombocyte aggregation in vitro was evaluated. The suppression of collagen-induced thrombocyte aggregation in vitro was carried out on thrombocyte-rich human plasma with the inventive substance 6-[4-(1-imidazolyl)-phenyl]-5-methyl-3-oxo-2,3,4,5-tetrahydropyridazine (A) in parallel with the reference substance acetylsalicyclic acid (D) according to the method of Born (Nature, 194, 927-929 (1962)) in modified form (simultaneous application). The concentration that caused a 50% reduction of the aggregation was defined as IC50 in Table 3 set forth below.

normotensive Wistar rats = assay: blood pressure-lowering effect on narcotized rats; type: in vivo, rat (male adult normotensive Wistar); details: for Average arterial pressure / Heart frequency: rats, 3.16 mg/kg orally, n = 5, narcotized 90 min after application; for Average arterial pressure: control 112.8 ± 4.8; for Heart frequency: control 307 ± 11
Method: as §1
(1) The blood pressure-lowering effect on narcotized rats was evaluated. For testing of the blood pressure-lowering effect, the invention substance 6-[4-(imidazolyl)phenyl]-5-methyl-3-oxo-2,3,4,5-tetrahydropyridazine (A) was administered in parallel with the reference substance 1-hydrazinophthalazine (hydralazine) (C) orally to groups of 5 male adult normotensive Wistar rats. Ninety minutes after application, the animal was narcotized with 75 mg/kg of intraperitoneal phenobarbital, and the trachea and the carotid artery were cannulated.

- IC50 ([1]; thrombocyte-rich human plasma, collagen-induced, simultaneous application): 2.4 µM
SMILES: CC1CC(=O)NN=C1c1ccc(-n2ccnc2)cc1 (stereo not shown) [Substance A, 6-[4-(1-imidazolyl)phenyl]-5-methyl-3-oxo-2,3,4,5-tetrahydropyridazine]
- Reduction in % (thrombin formation) (thrombin formation; 10 mg/kg orally): -52%
- influence on blood pressure (in words) (anaesthetized dogs): strong influence on blood pressure
- Pressure, Δ mmHg, diastolic (anaesthetized dogs): -51.42 mmHg
- Pressure, Δ mmHg, systolic (anaesthetized dogs): -51.77 mmHg
- blood pressure-lowering effect on the rats (in words) (normotensive Wistar rats; Table 1, in comparison with hydralazine C): powerful blood pressure-lowering effect
- Average arterial pressure (normotensive Wistar rats): 54.8 ± 8.9 mmHg
- Heart frequency (normotensive Wistar rats): 415 ± 17 beats/min.

SMILES: Cc1nccn1-c1ccc(C2=NNC(=O)CC2C)cc1 (stereo not shown) [Substance B, 6-[4-(2-methyl-1-imidazolyl)-phenyl]-5-methyl-3-oxo-2,3,4,5-tetrahydropyridazine]
- Reduction in % (thrombin formation) (thrombin formation; 10 mg/kg orally): -48%
- influence on blood pressure (in words) (anaesthetized dogs): strong influence on blood pressure
- Pressure, Δ mmHg, diastolic (anaesthetized dogs): -43.80 mmHg
- Pressure, Δ mmHg, systolic (anaesthetized dogs): -48.18 mmHg

SMILES: NNc1nncc2ccccc12 [Substance C, 1-hydrazinophthalazine, reference compound]
- Average arterial pressure (normotensive Wistar rats): 82.0 ± 6 mmHg
- Heart frequency (normotensive Wistar rats): 356 ± 8 beats/min.

SMILES: CC(=O)Oc1ccccc1C(=O)O [Substance D, acetylsalicylic acid, reference compound]
- Reduction in % (thrombin formation) (thrombin formation; 100 mg/kg orally): -45%
- IC50 ([1]; Homo sapiens): > 300 µM
